The structures appear in SMILES notation.

The series in a line: gradient 5% acetonitrile 3 min, to 50% in 2 min, to 85% in 15 min, held 3 min, 100 µL/min. To be noted: column: Zorbax Extend-C18 2.1 x 50 mm; eluents: water / acetonitrile, 0.1% formic acid. The procedure, abridged: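 Each retention time is based on an adduct peak selected computationally and verified by manual inspection. Measurements used HPLC–quadrupole time-of-flight mass spectrometry in positive and negative ionization mode on mixtures of ~100 pure standards. Chromatography ran on a Zorbax Extend-C18 column (2.1 × 50 mm, 1.8 μm) at 100 μL/min with water and acetonitrile, each containing 0.1% formic acid, and dead and dwell volumes of 40 μL and 900 μL.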
For `CCOC(=O)c1noc2ncnc(Nc3ccccc3OCC)c12`, the RP-LC retention time was found to be 971 s. To `CC1CCN(c2cncnc2-n2cc(NC(=O)NC(C)(C)C)cn2)CC1` belongs 722 s; to `Cc1c(C(=O)NC(C)C)cnn1-c1ccc(-c2nc(C(C)(C)C)no2)cn1`, 1020 s.

As to `Cc1ccc2nc3sc(C(=O)Nc4c(C)n(C)n(-c5ccccc5)c4=O)cc3c(=O)n2c1`, the RP-LC retention time is 635 s. In turn, `CCN1C(=O)c2ccccc2Oc2ccc(C(=O)N3CCN(c4cc(Cl)ccc4C)CC3)cc21` had an RP-LC retention time of 1190 s. In turn, `O=C(Cn1nc2c(cc1=O)CCCC2)Nc1ccc(N2CCCCS2(=O)=O)cc1` gave an RP-LC retention time of 720 s. To `O=C(NCCc1ccccc1)c1nc(Cn2c(=O)oc3ccccc32)no1` belongs 888 s; to `Cc1ccc(CS(=O)(=O)N2CCc3nc(-c4ccc(Cl)cc4)ncc3C2)cc1`, 1210 s. With `Cc1ccc(C)c(OCC(=O)Nc2nc(-c3ccc(Br)cc3)cs2)c1C` the figure was 1430 s; with `O=C(NC1(c2nc(-c3ccccc3)no2)CCCCC1)c1ccc(C(F)(F)F)cc1`, 1250 s; with `Cc1cc(C)c(C)c(S(=O)(=O)N2CC(=O)N(CC3CC3)CC23CCCC3)c1C`, 1170 s. To `O=C(O)c1cnc(N2CCOCC2)nc1-c1ccccn1` belongs 604 s.

In the case of `c1cc(-c2sc(-c3ccncc3)c(-c3ccncc3)c2-c2ccncc2)ccn1`, the RP-LC retention time is 575 s. The compound `CCn1cc(-c2nc(CC(=O)NC3CCCC3)cs2)c2cccnc21` yielded an RP-LC retention time of 848 s. To `O=C(CSc1nc(N2CCCCC2)nc2ccccc12)Nc1cccc(Br)c1` belongs 812 s. To `CC(C)CC(=O)N1CC(c2nc(-c3ccc(F)cc3)no2)C2(CCOCC2)C1` (centres undefined) belongs 926 s. Take `Cn1c(=O)c(C(=O)N2CCN(c3ccccn3)CC2)nn(-c2ccccc2)c1=O`: the RP-LC retention time was 604 s. On to `CC(C)CC(=O)Nc1ccc(S(=O)(=O)N2CCCC2c2nc(-c3ccc(Cl)cc3)no2)cc1` (centres undefined), for which the RP-LC retention time came out at 1160 s. To `O=C1NC(C(=O)NCc2ccccn2)Cn2cccc21` (centres undefined) belongs 541 s; to `O=C(CC1CCCC1)Nc1ccc(N2CCN(C3CCCC3)C2=O)nc1`, 801 s.

Take `COCCCNC(=O)CCc1cn(Cc2ccccc2F)c2ccccc12`: the RP-LC retention time was 909 s. With `COc1cn(CC(=O)NCc2ccc(F)cc2)c(CN2CCC(C)CC2)cc1=O` the figure was 550 s. The compound `CCCN1C(=O)c2cc(C(=O)NCCc3ccccc3)nn2CC1(C)C(=O)NC1CCCC1` (centres undefined) had an RP-LC retention time of 864 s. `Cc1ccc(C)c(NC(=O)N2CC(n3cnnc3-c3ccccc3)C2)c1` had an RP-LC retention time of 712 s.

The compound `COCC(=O)N1CCC([C@H]2[C@@H](OC)C(=O)N2C(C)C)CC1` came in with an RP-LC retention time of 602 s. With `CCCS(=O)(=O)N1CC(=O)N(c2cccc(Cl)c2C)C(C)(C(=O)NC2CCCCC2)C1` (centres undefined) the figure was 1010 s.

`CCCN1C(=O)CN(S(C)(=O)=O)CC1(C)C(=O)NCc1ccc(Cl)cc1` (centres undefined): the RP-LC retention time was determined as 758 s. In turn, `Cc1ccccc1CNC(=O)C1CCCN1S(=O)(=O)c1cc2c(cc1C)NC(=O)CO2` (centres undefined) showed an RP-LC retention time of 732 s. To `COc1cc(-c2cc(C(=O)O)c3cc4c(cc3n2)OCCO4)cc(OC)c1OC` belongs 676 s; to `COc1ccccc1-n1ccnc(NC(=O)Nc2cccc(F)c2)c1=O`, 919 s; to `O=C(Nc1nccs1)C1CCN(C(=O)C2c3ccccc3Oc3ccccc32)CC1`, 799 s. As to `CCOC(=O)c1ncn(Cc2ccc3c(c2)OCO3)c1N`, the RP-LC retention time came to 609 s. `Fc1cc(F)cc(-c2nnc(Cc3nc(-c4ccccc4F)no3)o2)c1`: the RP-LC retention time was 1060 s. Compound `CNc1nc(Nc2ccccc2F)nc2ccccc12` showed an RP-LC retention time of 634 s. Compound `COC(=O)c1ccc2c(=O)n(-c3ccc(Cl)cc3)c(N3CCN(C4CCCCC4)CC3)nc2c1` gave an RP-LC retention time of 754 s. To `O=C(C1=CN(c2cc(Cl)cc(Cl)c2)c2cc(F)ccc2S1(=O)=O)N1CCOCC1` belongs 875 s; to `O=C(NCCN1CCOCC1)c1ccc(-c2ccc(N3CCCCCC3)nc2)cc1`, 566 s. `Cc1cccc(NC(=O)N2CCC3(CC2)NC(=O)c2ccccc2O3)c1C` registered an RP-LC retention time of 775 s. With `Cc1nc(C(C)C)ncc1C(=O)Nc1ccc(Br)cc1F`, the RP-LC retention time was determined as 907 s. In turn, `COc1ccc(C(=O)CC2(O)C(=O)Nc3ccc(C)cc32)c(OC)c1` (centres undefined) came in with an RP-LC retention time of 685 s. `COc1ccc2cc1Oc1ccc(cc1)CC1c3c(cc(OC)c4c3Oc3cc5c(cc3O4)CCNC5C2)CCN1C` (centres undefined) had an RP-LC retention time of 601 s. To `CCn1cc(CN2CCC(N3C(=O)C4(CCCCC4)C3c3ccncc3)CC2)c(C)n1` (centres undefined) belongs 532 s; to `COc1ccc(COc2cc3oc(=O)c4cc(C(C)O)ccc4c3cc2OC)cc1` (centres undefined), 942 s.

Consider `O=C(Cn1cccc1-c1nnc(C2CC2)o1)Nc1ccc(F)c(Cl)c1`, for which the RP-LC retention time came out at 908 s. To `Cc1nn(-c2ccc(F)cc2)c2nc(N3CCCC(C(=O)NCc4ccc(Cl)cc4)C3)sc12` (centres undefined) belongs 1190 s; to `Cc1cc2ccccc2n1CCNC(=O)C(=O)c1c[nH]c2ccccc12`, 1010 s. For `CCc1cccc(C)c1Nc1c(-c2ccc(F)cc2)nc2nc(C)cc(C)n12`, the RP-LC retention time was 828 s. The compound `O=C(Cn1nc(N2CCOCC2)c2ccccc2c1=O)Nc1ccc(F)cc1Cl` came in with an RP-LC retention time of 816 s. For the compound `O=C(NCC1CCCCC1)C1CCN(C(=O)c2cc3ccsc3n2Cc2ccc(Cl)cc2)CC1`, the RP-LC retention time is 1170 s.

`CN1C(=O)c2cccn2CC1CNC(=O)NCCc1ccccc1` (centres undefined) displayed an RP-LC retention time of 661 s.

Take `CCC(=O)Nc1ccc(CCc2nc3ccc(C(=O)NC4CCCCCC4)cc3[nH]2)cc1`: the RP-LC retention time came out at 671 s. Take `Cc1cnc(C2CC2)n1C1CCN(C(=O)c2cccn2C)C1` (centres undefined): the RP-LC retention time amounted to 583 s.

The compound `COc1cc(NC(=O)c2csc(-c3ccc(C)n3C)n2)cc(OC)c1` registered an RP-LC retention time of 1130 s. With `COC(=O)c1cnc(N2CCN(C3CCCCC3)CC2)c2ccccc12` the figure was 683 s. For the compound `Cc1ccsc1C(=O)Nc1cccn2c(C3CCC3)nnc12`, the RP-LC retention time turned out to be 805 s.

`Cn1c(=O)n(C)c2cc(CNc3ccc(O)cc3)ccc21` gave an RP-LC retention time of 1190 s. With `CCCn1cc(CCNC(=O)Nc2cc(Cl)ccc2C)c2cccnc21` the figure was 863 s; with `Cc1ccc(F)c(NS(=O)(=O)c2cc3c(s2)CCN(C(=O)C2CC2)C3)c1`, 848 s; with `COc1ccc(Cn2nc3c(S(=O)(=O)N4CCCC4)cccn3c2=O)cc1`, 804 s.

(Values after the METLIN SMRT retention time set (Domingo-Almenara et al. 2019).)
